Measurements as given in patent US4471131A, “Novel silyl esters of N-phosphonomethylglycine” (Monsanto Company, priority 1983, dated 1984).

Columns and labels:
Experiment in all cases: post-emergence herbicidal activity, greenhouse
Type in all cases: in vivo
[1] = tested on: Barnyardgrass
Description: (§1) A good grade of top soil is placed in aluminum pans having holes in the bottom and compacted to a depth of 0.95 to 1.27 cm. from the top of the pan. A predetermined number of seeds of each of several dicotyledonous and moncotyledonous annual plant species and/or vegetative propagules for the perennial plant species were placed on the soil and pressed into the soil surface. The seeds and/or vegetative propagules are covered with soil and leveled. The pans are then placed on a sand bench in the greenhouse and watered from below as needed. After the plants reach the desired age (two to three weeks), each pan, except for the control pans, is removed individually to a spraying chamber and sprayed by means of an atomizer at the rates noted. In the spray solution is an amount of an emulsifying agent mixture to give a spray solution or suspension which contains about 0.4% by weight of the emulsifier. The spray solution or suspension contains a sufficient amount of the candidate chemical in order to give application rates corresponding to those set forth in the tables. The pans were returned to the greenhouse and watered as before and the injury to the plants as compared to the control is observed at approximately two and four weeks and the results recorded. In the tables, WAT means "weeks after treatment."
(§2) The post-emergent herbicidal activity index used in Tables II and III is as follows:
(§3) The plant species utilized in these tests are identified by letter in accordance with the following legend: […]

[2] = tested on: Canada Thistle; conditions: Table II, 11.2 kg/h, formulated immediately prior to treatment
Description: as §1, §2, §3

[3] = tested on: Cocklebur
Description: as §1, §2, §3

[4] = tested on: Common Lambsquarters
Description: as §1, §2, §3

[5] = tested on: Downy Brome
Description: as §1, §2, §3

[6] = tested on: Hemp Sesbania; conditions: Table III, 2 WAT
Description: as §1, §2, §3

[7] = tested on: Johnsongrass; conditions: Table II, 11.2 kg/h, formulated immediately prior to treatment
Description: as §1, §2, §3

[8] = tested on: Large Crabgrass; conditions: Table III, 2 WAT
Description: as §1, §2, §3

[9] = tested on: Morningglory
Description: as §1, §2, §3

[10] = tested on: Panicum Spp; conditions: Table III, 2 WAT
Description: as §1, §2, §3

[11] = tested on: Pennsylvania Smartweed
Description: as §1, §2, §3

[12] = tested on: Quackgrass; conditions: Table II, 11.2 kg/h, formulated immediately prior to treatment
Description: as §1, §2, §3

[13] = tested on: Rice; conditions: Table III, 2 WAT
Description: as §1, §2, §3

[14] = tested on: Soybean; conditions: Table III, 2 WAT
Description: as §1, §2, §3

[15] = tested on: Sugar Beet; conditions: Table III, 2 WAT
Description: as §1, §2, §3

[16] = tested on: Velvetleaf
Description: as §1, §2, §3

[17] = tested on: Wild Buckwheat; conditions: Table III, 2 WAT
Description: as §1, §2, §3

[18] = tested on: Yellow Nutsedge; conditions: Table II, 11.2 kg/h, formulated immediately prior to treatment
Description: as §1, §2, §3

[19] = Table II, 2 WAT, 11.2 kg/h, formulated immediately prior to treatment
[20] = Table II, 4 WAT, 11.2 kg/h, formulated immediately prior to treatment

CC(C)OC(=O)CNCP(=O)(O[Si](c1ccccc1)(c1ccccc1)C(C)(C)C)O[Si](c1ccccc1)(c1ccccc1)C(C)(C)C [Ex. 1]
0 (0-24% inhibition): Plant Response Index (A) ([2]; 2 WAT) | Plant Response Index (B) ([3]; Table III, 2 WAT, 1.1 kg/h) | Plant Response Index (E) [4, 19] | Plant Response Index (E) [4, 20] | Plant Response Index (E) ([4]; Table III, 2 WAT, 1.1 kg/h) | Plant Response Index (J) ([5]; Table III, 2 WAT, 1.1 kg/h) | Plant Response Index (R) ([6]; 1.1 kg/h) | Plant Response Index (I) ([7]; 2 WAT) | Plant Response Index (D) ([9]; Table III, 2 WAT, 1.1 kg/h) | Plant Response Index (S) ([10]; 1.1 kg/h) | Plant Response Index (F) ([11]; Table III, 2 WAT, 1.1 kg/h) | Plant Response Index (H) ([12]; 2 WAT) | Plant Response Index (O) ([13]; 1.1 kg/h) | Plant Response Index (L) ([14]; 1.1 kg/h) | Plant Response Index (C) [16, 19] | Plant Response Index (C) ([16]; Table III, 2 WAT, 1.1 kg/h) | Plant Response Index (Q) ([17]; 1.1 kg/h)
4 (100% inhibition): Plant Response Index (K) ([1]; Table III, 2 WAT, 5.6 kg/h) | Plant Response Index (T) ([8]; 5.6 kg/h)
3 (75-99% inhibition): Plant Response Index (K) [1, 20] | Plant Response Index (E) ([4]; Table III, 2 WAT, 5.6 kg/h) | Plant Response Index (J) ([5]; Table III, 2 WAT, 5.6 kg/h) | Plant Response Index (S) ([10]; 5.6 kg/h) | Plant Response Index (F) [11, 19] | Plant Response Index (F) [11, 20] | Plant Response Index (F) ([11]; Table III, 2 WAT, 5.6 kg/h) | Plant Response Index (O) ([13]; 5.6 kg/h) | Plant Response Index (M) ([15]; 5.6 kg/h) | Plant Response Index (Q) ([17]; 5.6 kg/h)
1 (25-49% inhibition): Plant Response Index (K) ([1]; Table III, 2 WAT, 1.1 kg/h) | Plant Response Index (A) ([2]; 4 WAT) | Plant Response Index (B) [3, 19] | Plant Response Index (B) [3, 20] | Plant Response Index (J) [5, 19] | Plant Response Index (J) [5, 20] | Plant Response Index (D) [9, 19] | Plant Response Index (H) ([12]; 4 WAT) | Plant Response Index (L) ([14]; 5.6 kg/h) | Plant Response Index (M) ([15]; 1.1 kg/h) | Plant Response Index (C) [16, 20] | Plant Response Index (G) ([18]; 2 WAT)
2 (50-74% inhibition): Plant Response Index (K) [1, 19] | Plant Response Index (B) ([3]; Table III, 2 WAT, 5.6 kg/h) | Plant Response Index (R) ([6]; 5.6 kg/h) | Plant Response Index (I) ([7]; 4 WAT) | Plant Response Index (T) ([8]; 1.1 kg/h) | Plant Response Index (D) [9, 20] | Plant Response Index (D) ([9]; Table III, 2 WAT, 5.6 kg/h) | Plant Response Index (C) ([16]; Table III, 2 WAT, 5.6 kg/h) | Plant Response Index (G) ([18]; 4 WAT)
